Reference: ChEMBL document CHEMBL3779842, “Isopimarane diterpenoids from Kaempferia pulchra rhizomes collected in Myanmar and their Vpr inhibitory activity” (Bioorg Med Chem Lett, 2016)
The source made the active and inactive calls. The calls are words filed in the database; no cut-off is given here.

Columns and labels:
Format in all cases: cell-based
Settings in all cases: Human immunodeficiency virus 1
[1] = system: TREx-HeLa-Vpr; experiment: Inhibition of -c-myc-His6 tagged HIV1 NL4-3 Vpr expressed in human TREx-HeLa-Vpr cells assessed as cell viability at 6.25 uM after 48 hrs in presence of tetracycline by WST8 assay
[2] = system: TREx-HeLa-Vpr; experiment: Inhibition of -c-myc-His6 tagged HIV1 NL4-3 Vpr expressed in human TREx-HeLa-Vpr cells assessed as cell viability at 3.12 uM after 48 hrs in presence of tetracycline by WST8 assay
[3] = system: TREx-HeLa-Vpr; experiment: Inhibition of -c-myc-His6 tagged HIV1 NL4-3 Vpr expressed in human TREx-HeLa-Vpr cells assessed as cell viability at 1.56 uM after 48 hrs in presence of tetracycline by WST8 assay
[4] = system: TREx-HeLa-Vpr; experiment: Inhibition of -c-myc-His6 tagged HIV1 NL4-3 Vpr expressed in human TREx-HeLa-Vpr cells assessed as cell viability at 5 uM after 48 hrs in presence of tetracycline by WST8 assay

Structure (SMILES)	inhibition [1]	inhibition [2]	inhibition [3]	Cell viability [1] [%]	Activity [2] [%]	Activity [3] [%]	Activity [4] [%]
C=C[C@@]1(C)CCC2=C(C[C@@H](O)[C@H]3C(C)(C)CCC[C@]23C)[C@H]1O	inactive	inactive	inactive	–	–	–	–
C=C[C@]1(C)C=C2CC[C@H]3C(C)(C)C[C@H](O)[C@H](O)[C@]3(C)[C@@]2(O)CC1	inactive	inactive	inactive	–	–	–	–
C=C[C@]1(C)C=C2C[C@@H](O)[C@H]3C(C)(C)CC[C@H](O)[C@]3(C)[C@H]2CC1	inactive	inactive	inactive	–	–	–	–
C=C[C@]1(C)C=C2[C@@H](O)C[C@H]3C(C)(C)CCC[C@]3(C)[C@@]2(O)CC1	inactive	inactive	inactive	–	–	–	–
C=C[C@]1(C)C=C2CC[C@H]3C(C)(C)C[C@H](O)[C@H](O)[C@]3(C)[C@H]2CC1	inactive	inactive	inactive	–	–	–	–
C=C[C@@]1(C)CCC2=C(C[C@@H](O)[C@H]3C(C)(C)CCC[C@]23C)[C@@H]1O	–	–	–	157	170	180	–
C=C[C@]1(C)C=C2C(=O)C[C@H]3C(C)(C)CCC[C@]3(C)[C@@]2(O)CC1	inactive	inactive	inactive	–	–	–	–
C=C[C@]1(C)C=C2CC[C@H]3C(C)(C)CC[C@H](O)[C@]3(C)[C@H]2[C@H](O)C1	inactive	inactive	inactive	–	–	–	–
C=C[C@]1(C)C=C2[C@H](O)C[C@H]3C(C)(C)CCC[C@]3(C)[C@H]2CC1	inactive	inactive	inactive	–	–	–	–
CCOC(=O)/C=C/c1ccc(OC)cc1	inactive	inactive	inactive	–	–	–	–
C=C[C@@]1(C)CCC2=C(C[C@@H](O)[C@H]3C(C)(C)CCC[C@]23C)C1=O	–	–	–	98	106	114	–
C=C[C@]1(C)C=C2[C@@H](OC(C)=O)[C@@H](O)[C@H]3C(C)(C)CCC[C@]3(C)[C@@]2(O)CC1	inactive	inactive	inactive	–	–	–	–
C=C[C@]1(C)C=C2CC[C@H]3C(C)(C)CC[C@H](O)[C@]3(C)[C@H]2CC1	inactive	inactive	inactive	–	–	–	–
C=C[C@@]1(C)CCC2=C(C[C@@H](O)[C@H]3C(C)(C)CCC[C@]23C)[C@H]1OC	inactive	inactive	inactive	–	–	–	–
C=C[C@]1(C)C=C2CC[C@H]3C(C)(C)[C@H](O)C[C@H](O)[C@]3(C)[C@H]2CC1	inactive	inactive	inactive	–	–	–	–
C=C[C@]1(C)C=C2[C@@H](O)[C@@H](O)[C@H]3C(C)(C)CCC[C@]3(C)[C@@]2(O)CC1	–	–	–	96	111	130	–

Structure (SMILES)	inhibition [1]	inhibition [2]	inhibition [3]	Cell viability [1] [%]	Activity [2] [%]	Activity [3] [%]	Activity [4] [%]
C=C[C@]1(C)C=C2C[C@@H](O)[C@H]3C(C)(C)CC[C@H](OC(C)=O)[C@]3(C)[C@H]2CC1	–	–	–	105	116	130	–
C=C[C@]1(C)C=C2C[C@@H](O)[C@H]3C(C)(C)CCC[C@]3(C)[C@H]2CC1	inactive	inactive	inactive	–	–	–	–
C=C[C@]1(C)C=C2C[C@@H](O)[C@H]3C(C)(C)[C@H](O)C[C@H](O)[C@]3(C)[C@H]2CC1	inactive	inactive	inactive	–	–	–	–
C=C[C@@]1(C)CCC2=C(CC[C@H]3C(C)(C)CCC[C@]23C)[C@H]1O	–	–	–	104	106	116	–
C=C[C@@]1(C)CCC2=C(C(=O)C[C@H]3C(C)(C)CCC[C@]23C)[C@H]1O	inactive	inactive	inactive	–	–	–	–
C=C[C@]1(C)C=C2C[C@@H](OC(C)=O)[C@H]3C(C)(C)CCC[C@]3(C)[C@@]2(O)CC1	inactive	inactive	inactive	–	–	–	–
C=C[C@]1(C)C=C2CC[C@H]3C(C)(C)C[C@H](O)[C@H](O)[C@]3(C)[C@H]2[C@H](O)C1	inactive	inactive	inactive	–	–	–	–
C=C[C@]1(C)C=C2C(=O)C[C@H]3C(C)(C)CC[C@H](O)[C@]3(C)[C@H]2CC1	inactive	inactive	inactive	–	–	–	–
COc1c(C=O)c(O)cc2c1C(=O)c1ccccc1C2=O	–	–	–	–	–	–	137
C=C[C@@]1(C)CCC2=C(C[C@@H](O)[C@H]3C(C)(C)CCC[C@]23C)[C@@H]1OC	–	–	–	114	119	126	–
C=C[C@@]1(C)C=C2CC[C@@H]3C(C)(C)C[C@@H](O)C[C@@]3(C)[C@@H]2CC1	inactive	inactive	inactive	–	–	–	–
C=C[C@]1(C)C=C2[C@H](OC(C)=O)C[C@H]3C(C)(C)CCC[C@]3(C)[C@@]2(O)CC1	inactive	inactive	inactive	–	–	–	–
C=C[C@]1(C)C=C2C[C@@H](O)[C@H]3C(C)(C)CCC[C@]3(C)[C@@]2(OC)CC1	inactive	inactive	inactive	–	–	–	–
C=C[C@@]1(C)CCC2=C(C[C@@H](O)[C@H]3C(C)(C)CC[C@H](O)[C@]23C)[C@@H]1OC	inactive	inactive	inactive	–	–	–	–
C=C[C@]1(C)C=C2[C@H](OC(C)=O)[C@@H](O)[C@H]3C(C)(C)CCC[C@]3(C)[C@H]2CC1	–	–	–	96	114	127	–
C=C[C@@]1(C)CCC2=C(C[C@@H](O)[C@H]3C(C)(C)CC[C@H](O)[C@]23C)[C@H]1O	inactive	inactive	inactive	–	–	–	–
